Experimental data as given in the CheMixHub ionic liquid set.

Test: xn = mol fraction of the nth substance listed

O=S(=O)([N-]S(=O)(=O)C(F)(F)F)C(F)(F)F.[Li+] + CC[n+]1ccn(C)c1.O=S(=O)([N-]S(=O)(=O)C(F)(F)F)C(F)(F)F + O
Conditions | electrical conductivity [S/m] | viscosity [mPa·s]
283 K, 101 kPa, x1 = 0.2649, x2 = 0 | 0.62 | –
283 K, 101 kPa, x1 = 0.2649, x2 = 0.2649 | 0.37 | 90.3
283 K, 101 kPa, x1 = 0.4189, x2 = 0.2649 | 0.049 | –
293 K, 101 kPa, x1 = 0.2649, x2 = 0 | 0.89 | 69.2
293 K, 101 kPa, x1 = 0.2649, x2 = 0.2649 | 0.56 | 55
293 K, 101 kPa, x1 = 0.4189, x2 = 0.2649 | 0.093 | 407
293.15 K, 100 kPa, x1 = 0.2745, x2 = 0.3509 | – | 55.7
293.15 K, 100 kPa, x1 = 0.3106, x2 = 0.3509 | – | 71.5
293.15 K, 100 kPa, x1 = 0.3509, x2 = 0.3509 | – | 111
293.15 K, 100 kPa, x1 = 0.3868, x2 = 0.3509 | – | 157
293.15 K, 100 kPa, x1 = 0.4189, x2 = 0.3509 | – | 220
293.15 K, 100 kPa, x1 = 0.4478, x2 = 0.3509 | – | 312
293.15 K, 100 kPa, x1 = 0.474, x2 = 0.3509 | – | 470
293.15 K, 100 kPa, x1 = 0.4978, x2 = 0.3509 | – | 715
298.1 K, 101 kPa, x1 = 0.2649, x2 = 0 | 1.04 | 55.3
298.1 K, 101 kPa, x1 = 0.2649, x2 = 0.2649 | 0.67 | 44.2
298.1 K, 101 kPa, x1 = 0.4189, x2 = 0.2649 | 0.12 | 293
298.15 K, 100 kPa, x1 = 0.2745, x2 = 0.3509 | – | 43.1
298.15 K, 100 kPa, x1 = 0.3106, x2 = 0.3509 | – | 55.3
298.15 K, 100 kPa, x1 = 0.3509, x2 = 0.3509 | – | 86.4
298.15 K, 100 kPa, x1 = 0.3868, x2 = 0.3509 | – | 120
298.15 K, 100 kPa, x1 = 0.4189, x2 = 0.3509 | – | 164
298.15 K, 100 kPa, x1 = 0.4478, x2 = 0.3509 | – | 227
298.15 K, 100 kPa, x1 = 0.474, x2 = 0.3509 | – | 336
298.15 K, 100 kPa, x1 = 0.4978, x2 = 0.3509 | – | 497
303 K, 101 kPa, x1 = 0.2649, x2 = 0 | 1.22 | 45.4
303 K, 101 kPa, x1 = 0.2649, x2 = 0.2649 | 0.8 | 36
303 K, 101 kPa, x1 = 0.4189, x2 = 0.2649 | 0.16 | 216
303.15 K, 100 kPa, x1 = 0.2745, x2 = 0.3509 | – | 34.6
303.15 K, 100 kPa, x1 = 0.3106, x2 = 0.3509 | – | 44.4
303.15 K, 100 kPa, x1 = 0.3509, x2 = 0.3509 | – | 62.3
303.15 K, 100 kPa, x1 = 0.3868, x2 = 0.3509 | – | 92.4
303.15 K, 100 kPa, x1 = 0.4189, x2 = 0.3509 | – | 126
303.15 K, 100 kPa, x1 = 0.4478, x2 = 0.3509 | – | 171
303.15 K, 100 kPa, x1 = 0.474, x2 = 0.3509 | – | 245
303.15 K, 100 kPa, x1 = 0.4978, x2 = 0.3509 | – | 356
313 K, 101 kPa, x1 = 0.2649, x2 = 0 | 1.6 | 30.9
313 K, 101 kPa, x1 = 0.2649, x2 = 0.2649 | 1.1 | 24.9
313 K, 101 kPa, x1 = 0.4189, x2 = 0.2649 | 0.25 | 125
313.15 K, 100 kPa, x1 = 0.2745, x2 = 0.3509 | – | 23.4
313.15 K, 100 kPa, x1 = 0.3106, x2 = 0.3509 | – | 30.1
313.15 K, 100 kPa, x1 = 0.3509, x2 = 0.3509 | – | 41.2
313.15 K, 100 kPa, x1 = 0.3868, x2 = 0.3509 | – | 57.6
313.15 K, 100 kPa, x1 = 0.4189, x2 = 0.3509 | – | 78.2
313.15 K, 100 kPa, x1 = 0.4478, x2 = 0.3509 | – | 102
313.15 K, 100 kPa, x1 = 0.474, x2 = 0.3509 | – | 142
313.15 K, 100 kPa, x1 = 0.4978, x2 = 0.3509 | – | 197
323 K, 101 kPa, x1 = 0.2649, x2 = 0 | 2.04 | 21.8
323 K, 101 kPa, x1 = 0.2649, x2 = 0.2649 | 1.45 | 18.2
323 K, 101 kPa, x1 = 0.4189, x2 = 0.2649 | 0.38 | 78.5
323.15 K, 100 kPa, x1 = 0.2745, x2 = 0.3509 | – | 16.7
323.15 K, 100 kPa, x1 = 0.3106, x2 = 0.3509 | – | 21.4
323.15 K, 100 kPa, x1 = 0.3509, x2 = 0.3509 | – | 29
323.15 K, 100 kPa, x1 = 0.3868, x2 = 0.3509 | – | 39
323.15 K, 100 kPa, x1 = 0.4189, x2 = 0.3509 | – | 50.9
323.15 K, 100 kPa, x1 = 0.4478, x2 = 0.3509 | – | 61.3
323.15 K, 100 kPa, x1 = 0.474, x2 = 0.3509 | – | 89.2
323.15 K, 100 kPa, x1 = 0.4978, x2 = 0.3509 | – | 120
333 K, 101 kPa, x1 = 0.2649, x2 = 0 | 2.58 | 16.2
333 K, 101 kPa, x1 = 0.2649, x2 = 0.2649 | 1.83 | 13.8
333 K, 101 kPa, x1 = 0.4189, x2 = 0.2649 | 0.53 | 51.9
333.15 K, 100 kPa, x1 = 0.2745, x2 = 0.3509 | – | 12.4
333.15 K, 100 kPa, x1 = 0.3106, x2 = 0.3509 | – | 15.9
333.15 K, 100 kPa, x1 = 0.3509, x2 = 0.3509 | – | 20.1
333.15 K, 100 kPa, x1 = 0.3868, x2 = 0.3509 | – | 26.2
333.15 K, 100 kPa, x1 = 0.4189, x2 = 0.3509 | – | 34.2
333.15 K, 100 kPa, x1 = 0.4478, x2 = 0.3509 | – | 41.8
333.15 K, 100 kPa, x1 = 0.474, x2 = 0.3509 | – | 53.7
333.15 K, 100 kPa, x1 = 0.4978, x2 = 0.3509 | – | 78.1
343.15 K, 100 kPa, x1 = 0.2745, x2 = 0.3509 | – | 9.49
343.15 K, 100 kPa, x1 = 0.3106, x2 = 0.3509 | – | 12.2
343.15 K, 100 kPa, x1 = 0.3509, x2 = 0.3509 | – | 15.2
343.15 K, 100 kPa, x1 = 0.3868, x2 = 0.3509 | – | 19.1
343.15 K, 100 kPa, x1 = 0.4189, x2 = 0.3509 | – | 24.5
343.15 K, 100 kPa, x1 = 0.4478, x2 = 0.3509 | – | 29.6
343.15 K, 100 kPa, x1 = 0.474, x2 = 0.3509 | – | 37.2
343.15 K, 100 kPa, x1 = 0.4978, x2 = 0.3509 | – | 49.7
353.15 K, 100 kPa, x1 = 0.2745, x2 = 0.3509 | – | 7.49
353.15 K, 100 kPa, x1 = 0.3106, x2 = 0.3509 | – | 9.62
353.15 K, 100 kPa, x1 = 0.3509, x2 = 0.3509 | – | 11.8
353.15 K, 100 kPa, x1 = 0.3868, x2 = 0.3509 | – | 14.5
353.15 K, 100 kPa, x1 = 0.4189, x2 = 0.3509 | – | 18.4
353.15 K, 100 kPa, x1 = 0.4478, x2 = 0.3509 | – | 21.9
353.15 K, 100 kPa, x1 = 0.474, x2 = 0.3509 | – | 27
353.15 K, 100 kPa, x1 = 0.4978, x2 = 0.3509 | – | 35
363.15 K, 100 kPa, x1 = 0.2745, x2 = 0.3509 | – | 6.01
363.15 K, 100 kPa, x1 = 0.3106, x2 = 0.3509 | – | 7.72
363.15 K, 100 kPa, x1 = 0.3509, x2 = 0.3509 | – | 9.69
363.15 K, 100 kPa, x1 = 0.3868, x2 = 0.3509 | – | 11.3
363.15 K, 100 kPa, x1 = 0.4189, x2 = 0.3509 | – | 14.2
363.15 K, 100 kPa, x1 = 0.4478, x2 = 0.3509 | – | 16.6
363.15 K, 100 kPa, x1 = 0.474, x2 = 0.3509 | – | 20.3
363.15 K, 100 kPa, x1 = 0.4978, x2 = 0.3509 | – | 25.7
